Source: PMC11481179, “Development and Application of Reversible and Irreversible Covalent Probes for Human and Mouse Cathepsin‐K Activity Detection, Revealing Nuclear Activity” (Advanced Science, 2024)

Biological target: T1, CTSK in U2-OS cells (Homo sapiens, UniProt P43235)
T1 construct: ability to label endogenous CTSK activity in intact cells; endogenous in cells; host or cells: U-2 OS
T1 sequence (P43235 115-329): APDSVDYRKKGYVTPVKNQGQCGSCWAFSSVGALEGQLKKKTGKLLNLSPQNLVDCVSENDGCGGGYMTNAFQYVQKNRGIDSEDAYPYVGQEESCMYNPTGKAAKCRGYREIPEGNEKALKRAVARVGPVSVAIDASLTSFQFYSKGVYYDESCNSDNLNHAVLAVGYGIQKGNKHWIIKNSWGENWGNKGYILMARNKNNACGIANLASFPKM
Test: Colocalization of ABP with anti-CTSK antibody, confocal microscopy
Format: cell-based
Conditions: fixed U2-OS cells
Description: The probes were then evaluated for their ability to detect active CTSK by fluorescent microscopy. ABPs were incubated with intact U‐2 OS cells, after preincubation with vehicle, a pan cathepsin inhibitor (GB111‐NH2 ),^[ [47] ^] or our selective CTSK inhibitor GD30. Cells were then fixed and imaged by confocal fluorescent microscopy, (Figure 3a). The irreversible GD32 detected active CTSK and was inhibited by both inhibitors, indicating probe specificity. […] However, when live cell imaging was performed without fixation, active CTSK was detected by GD42 although barely, reflecting the probe affinity together with the low level of active CTSK in this cell line (Figure 3b). In order to determine the specificity of GD32’s fluorescence signaling, U2‐OS cells were treated with the probe. […] Additionally, the increased extent of the antibody signal may be attributed to its interaction with the pro‐CTSK, or CTSK that is bound to an endogenous inhibitor, which should not be detected by GD32 since they are not active. Figure 3 CTSK activity detected in intact cells. a) Cultures of U2‐OS cells were grown in 8‐well chambers. […] Red, probe fluorescence, blue, DAPI. page 14: Evaluation of the permeability of GD30, and ODN to intact cells, competition assay: MG63, U87-MG, A549, and U-2 OS cells (5x10^5 cells/well) were seeded in a six-well plate one day before treatment. […]

C#CCNC(=O)[C@H](CC(C)C)N[C@@H](c1ccc(-c2ccc(S(=O)(=O)CCNC(=O)CCCCC[N+]3=C(/C=C/C=C/C=C4/N(C)c5ccc(S(=O)(=O)O)cc5C4(C)C)C(C)(C)c4cc(S(=O)(=O)O)ccc43)cc2)cc1)C(F)(F)F [GD32]
overlap coefficiency of probe signal (Cy5) with CTSK antibody (Cy3): 0.892
